Results taken from ChEMBL document CHEMBL4602611, “Discovery of 1,2,4-triazine-based derivatives as novel neddylation inhibitors and anticancer activity studies against gastric cancer MGC-803 cells” (Bioorg Med Chem Lett, 2020).
Calls of active or inactive are those of the source. The rule behind the calls is not given here.

How the values were obtained:
MGC-803 [1] = test: Antiproliferative activity against human MGC803 cells assessed as inhibition of cell growth incubated for 48 hrs by MTT assay; type: functional, cell-based; conditions: for IC50: MGC-803, 48 h
PC-3 = test: Antiproliferative activity against human PC3 cells assessed as inhibition of cell growth incubated for 48 hrs by MTT assay; type: functional, cell-based; conditions: PC-3, 48 h
ECa-109 cell line = test: Antiproliferative activity against human EC109 cells assessed as inhibition of cell growth incubated for 48 hrs by MTT assay; type: functional, cell-based; conditions: ECa-109, 48 h
[2] = molecular target: T1, NEDD8-activating enzyme E1 regulatory subunit (Homo sapiens) (UniProt Q13564); test: Inhibition of NAE-mediated neddylation in human MGC803 cells assessed as reduction in Nedd8-Cullin1 adduct formation by Western blot analysis; type: cell-based
T1 sequence (whole entry): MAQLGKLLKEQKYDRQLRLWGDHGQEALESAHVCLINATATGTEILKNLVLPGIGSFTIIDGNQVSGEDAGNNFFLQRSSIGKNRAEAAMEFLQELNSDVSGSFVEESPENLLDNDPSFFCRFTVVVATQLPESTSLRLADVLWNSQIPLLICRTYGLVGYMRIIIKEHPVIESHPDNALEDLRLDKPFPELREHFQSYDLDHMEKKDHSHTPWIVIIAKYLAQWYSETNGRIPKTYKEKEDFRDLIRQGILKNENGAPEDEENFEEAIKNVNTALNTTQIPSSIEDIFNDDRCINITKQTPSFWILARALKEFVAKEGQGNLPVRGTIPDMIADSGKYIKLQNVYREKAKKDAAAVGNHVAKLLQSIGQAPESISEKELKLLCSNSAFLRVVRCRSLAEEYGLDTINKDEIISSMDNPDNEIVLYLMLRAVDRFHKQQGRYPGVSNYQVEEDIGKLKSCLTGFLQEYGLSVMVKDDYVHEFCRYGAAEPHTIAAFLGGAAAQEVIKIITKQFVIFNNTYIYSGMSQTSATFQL

[3] = molecular target: T1, NEDD8-activating enzyme E1 regulatory subunit (Homo sapiens); test: Inhibition of NAE (unknown origin)-mediated neddylation assessed as decrease in Nedd8-Ubcl2 adduct formation at 5 uM by Western blot analysis
[4] = molecular target: T1, NEDD8-activating enzyme E1 regulatory subunit (Homo sapiens); test: (§1) Inhibition of NAE-mediated neddylation in human MGC803 cells assessed as reduction in Nedd8-Ubcl2 adduct formation incubated for 24 hrs by Western blot analysis; type: cell-based; conditions: MGC-803
[5] = molecular target: T2, NEDD8-activating enzyme E1 regulatory subunit (Homo sapiens, UniProt Q13564); test: as §1; type: cell-based, MGC-803
T2 sequence (Q13564 whole entry): T1 sequence (whole entry)

[6] = molecular target: T1, NEDD8-activating enzyme E1 regulatory subunit (Homo sapiens); test: Inhibition of NAE-mediated neddylation in human MGC803 cells assessed as reduction in Nedd8-Ubcl2 adduct formation at 5 uM incubated for 24 hrs by Western blot analysis; type: cell-based; conditions: MGC-803
[7] = molecular target: T1, NEDD8-activating enzyme E1 regulatory subunit (Homo sapiens); test: Inhibition of NAE-mediated neddylation in human MGC803 cells assessed as reduction in Nedd8-Ubcl2 adduct formation at 10 uM incubated for 24 hrs by Western blot analysis relative to control; type: cell-based; conditions: MGC-803
[8] = molecular target: T1, NEDD8-activating enzyme E1 regulatory subunit (Homo sapiens); test: Inhibition of NAE-mediated neddylation in human MGC803 cells assessed as reduction in Nedd8-Cullin3 adduct formation at 10 uM incubated for 24 hrs by Western blot analysis; type: cell-based; conditions: MGC-803
[9] = molecular target: T1, NEDD8-activating enzyme E1 regulatory subunit (Homo sapiens); test: Inhibition of NAE-mediated neddylation in human MGC803 cells assessed as reduction in NAE1-Nedd8 adduct formation at 10 uM incubated for 24 hrs by Western blot analysis; type: cell-based; conditions: MGC-803
MGC-803 [10] = test: Increase in p21 protein expression in human MGC803 cells at 5 to 20 umol/l incubated for 24 hrs by Western blot analysis; type: functional, cell-based
MGC-803 [11] = test: Increase in ATF4 protein expression in human MGC803 cells at 5 to 20 umol/l incubated for 24 hrs by Western blot analysis; type: functional, cell-based
MGC-803 [12] = test: Increase in CHOP protein expression in human MGC803 cells at 5 to 20 umol/l incubated for 24 hrs by Western blot analysis; type: functional, cell-based
MGC-803 [13] = test: Increase in DR5 protein expression in human MGC803 cells at 5 to 20 umol/l incubated for 24 hrs by Western blot analysis; type: functional, cell-based
MGC-803 [14] = test: Increase in Noxa protein expression in human MGC803 cells at 5 to 20 umol/l incubated for 24 hrs by Western blot analysis; type: functional, cell-based
MGC-803 [15] = test: Inhibition of colony formation in human MGC803 cells at 0.5 uM incubated for 7 days by crystal violet staining based assay; type: functional, cell-based
MGC-803 [16] = test: Induction of cell cycle arrest in human MGC803 cells assessed as accumulation in G2/M phase at 5 to 20 umol/l incubated for 24 hrs by propidium iodide staining based flow cytometric analysis; type: functional
MGC-803 [17] = test: Induction of cell cycle arrest in human MGC803 cells assessed as fold change in accumulation in G2/M phase at 5 to 20 umol/l incubated for 24 hrs by propidium iodide staining based flow cytometric analysis relative to control; type: functional
MGC-803 [18] = test: Downregulation of Cyclin B1 protein expression in human MGC803 cells at 5 to 20 umol/l incubated for 24 hrs by Western blot analysis; type: functional, cell-based
MGC-803 [19] = test: Downregulation of CDK1 protein expression in human MGC803 cells at 5 to 20 umol/l incubated for 24 hrs by Western blot analysis; type: functional, cell-based
MGC-803 [20] = test: Induction of apoptosis in human MGC803 cells at 5 to 20 umol/l incubated for 48 hrs by AnnexinV-FITC/PI staining based flow cytometric analysis relative to control; type: functional
MGC-803 [21] = test: Upregulation in Bax protein expression in human MGC803 cells at 5 to 20 umol/l incubated for 48 hrs by Western blot analysis; type: functional, cell-based
MGC-803 [22] = test: Downregulation of XIAP protein expression in human MGC803 cells at 5 to 20 umol/l incubated for 48 hrs by Western blot analysis; type: functional, cell-based
MGC-803 [23] = test: Induction of apoptosis in human MGC803 cells assessed as increase in cleaved caspase9 expression at 5 to 20 umol/l incubated for 48 hrs by Western blot analysis; type: functional, cell-based
MGC-803 [24] = test: Induction of apoptosis in human MGC803 cells assessed as increase in cleaved caspase3 expression at 5 to 20 umol/l incubated for 48 hrs by Western blot analysis; type: functional, cell-based
MGC-803 [25] = test: Induction of apoptosis in human MGC803 cells assessed as increase in cleaved PARP expression at 5 to 20 umol/l incubated for 48 hrs by Western blot analysis; type: functional, cell-based
MGC-803 [26] = test: Antiproliferative activity against human MGC803 cells assessed as inhibition of cell growth at 10 umol/l measured within 48 hrs of incubation by MTT assay; type: functional, cell-based
MGC-803 [27] = test: Antiproliferative activity against human MGC803 cells assessed as fold increase in cell growth at 10 umol/l incubated for 48 hrs by MTT assay relative to control; type: functional
[28] = molecular target: T1, NEDD8-activating enzyme E1 regulatory subunit (Homo sapiens); test: Inhibition of NAE (unknown origin)-mediated neddylation assessed as decrease in Nedd8-Ubcl2 adduct formation at 10 uM by Western blot analysis

## COc1cc(Nc2nc(Nc3ccc4c(ccn4C)c3)nnc2Cl)cc(OC)c1OC
MGC-803 [1]
  IC50: 28.1 µM
PC-3
  IC50: 48.5 µM
ECa-109 cell line
  IC50: 42.1 µM

## COc1cccc(Nc2nnc(Cl)c(Nc3cc(OC)c(OC)c(OC)c3)n2)c1
MGC-803 [1]
  IC50: 16.5 µM
PC-3
  IC50: 11.3 µM
ECa-109 cell line
  IC50: 15.9 µM

## COc1cc(Nc2nc(Nc3ccc(C(C)=O)cc3)nnc2Cl)cc(OC)c1OC
MGC-803 [1]
  IC50: 13 µM
PC-3
  IC50: 38.6 µM
ECa-109 cell line
  IC50: 36.3 µM

## COc1cc(Nc2nc(Nc3ccc(C)cc3)nnc2Cl)cc(OC)c1OC
MGC-803 [1]
  IC50: 19.8 µM
PC-3
  IC50: 14.3 µM
ECa-109 cell line
  IC50: 27.3 µM

## COc1cc(Nc2nc(Nc3ccc4[nH]ccc4c3)nnc2Cl)cc(OC)c1OC
MGC-803 [1]
  inhibition: Dose-dependent effect
  IC50: 8.22 µM
PC-3
  IC50: 9.28 µM
ECa-109 cell line
  IC50: 9.64 µM
[2]; MGC-803, TDE = time-dependent effect
  inhibition: Tde
[3]
  inhibition: Active
[4]
  inhibition: Dose-dependent effect
[5]
  EC50: 3.56 µM
[6]
  inhibition: Active
[7]
  inhibition: 100%
[8]
  inhibition: Active
[9]
  inhibition: Active
MGC-803 [10]
  Activity: Active
MGC-803 [11]
  Activity: Active
MGC-803 [12]
  Activity: Active
MGC-803 [13]
  Activity: Active
MGC-803 [14]
  Activity: Active
MGC-803 [15]
  inhibition: Active
MGC-803 [16]
  Activity: Active
MGC-803 [17]
  fold change (FC): 2
MGC-803 [18]
  inhibition: Active
MGC-803 [19]
  inhibition: Active
MGC-803 [20]
  Activity: 60%
MGC-803 [21]
  Activity: Active
MGC-803 [22]
  inhibition: Active
MGC-803 [23]
  Activity: Active
MGC-803 [24]
  Activity: Active
MGC-803 [25]
  Activity: Active
MGC-803 [26]
  Activity: Active
MGC-803 [27]
  fold change (FC): 1.3

## COc1cc(Nc2nc(Nc3ccc(C(N)=O)cc3)nnc2Cl)cc(OC)c1OC
MGC-803 [1]
  IC50: 15.2 µM
PC-3
  IC50: 32.1 µM
ECa-109 cell line
  IC50: 42.4 µM

## COc1cc(Nc2nc(Nc3ccccc3)nnc2Cl)cc(OC)c1OC
MGC-803 [1]
  IC50: 8.75 µM
PC-3
  IC50: 9.75 µM
ECa-109 cell line
  IC50: 12.6 µM

## NS(=O)(=O)OC[C@@H]1C[C@@H](n2ccc3c(N[C@H]4CCc5ccccc54)ncnc32)C[C@@H]1O
[28]
  inhibition: Active

## COc1cc(Nc2nc(Cl)nnc2Cl)cc(OC)c1OC
[2]; MGC-803
  inhibition: Dose-dependent effect

## COc1cc(Nc2nc(Nc3ccc(Cl)cc3)nnc2Cl)cc(OC)c1OC
MGC-803 [1]
  IC50: 12.6 µM
PC-3
  IC50: 9.61 µM
ECa-109 cell line
  IC50: 32.6 µM

## O=c1[nH]cc(F)c(=O)[nH]1 [FLUOROURACIL]
ECa-109 cell line
  IC50: 21.2 µM

## COc1cc(Nc2nnc(Cl)c(Nc3cc(OC)c(OC)c(OC)c3)n2)cc(OC)c1OC
MGC-803 [1]
  IC50: 24.3 µM
PC-3
  IC50: 34.3 µM
ECa-109 cell line
  IC50: > 50 µM

## CCOC(=O)c1ccc(Nc2nnc(Cl)c(Nc3cc(OC)c(OC)c(OC)c3)n2)cc1
MGC-803 [1]
  IC50: 53.6 µM
PC-3
  IC50: 58.5 µM
ECa-109 cell line
  IC50: 46.6 µM

## COc1cc(Nc2nc(Nc3ccc(Br)cc3)nnc2Cl)cc(OC)c1OC
MGC-803 [1]
  IC50: 11.3 µM
PC-3
  IC50: 8.99 µM
ECa-109 cell line
  IC50: 41.6 µM

## COc1ccc(Nc2nnc(Cl)c(Nc3cc(OC)c(OC)c(OC)c3)n2)cc1
MGC-803 [1]
  IC50: 18.9 µM
PC-3
  IC50: 13.5 µM
ECa-109 cell line
  IC50: 22.3 µM
